Measurements taken from ChEMBL document CHEMBL1177695, “Discovery and development of natural product-derived chemotherapeutic agents based on a medicinal chemistry approach” (J Nat Prod, 2010).
Converted amounts (≈) assume the structure as drawn.

Assays:
[1] = tested on: PC-3; assay: Cytotoxicity against human PC3 cells after 2 days; format: functional, cell-based; conditions: PC-3, 48 h
[2] = tested on: LNCaP; assay: Cytotoxicity against human LNCAP cells after 2 days; format: functional, cell-based; conditions: 48 h
[3] = tested on: Tubulin; assay: Inhibition of tubulin polymerization
[4] = tested on: P388; assay: Antitumor activity against mouse P388 cells allografted in mouse at 8 mg/kg relative to control; format: functional
[5] = Antitumor activity against rat Walker 256 cells allografted in rat at 2.5 mg/kg relative to control; format: functional
[6] = tested on: MDA-MB-231; assay: Cytotoxicity against human MDA-MB-231 cells after 72 hrs by sulforhodamine B assay; format: functional; conditions: MDA-MB-231, 72 h, read-out: ED50 (the source's name)
[7] = tested on: MCF7; assay: Cytotoxicity against human MCF7 cells after 72 hrs by sulforhodamine B assay; format: functional; conditions: MCF7, 72 h, read-out: ED50 (the source's name)
[8] = tested on: ZR-75-1; assay: Cytotoxicity against human ZR-75-1 cells after 72 hrs by sulforhodamine B assay; format: functional; conditions: ZR-75-1, 72 h, read-out: ED50 (the source's name)
[9] = tested on: SK-BR-3; assay: Cytotoxicity against human SK-BR-3 cells after 72 hrs by sulforhodamine B assay; format: functional; conditions: SK-BR-3, 72 h, read-out: ED50 (the source's name)
[10] = tested on: Human immunodeficiency virus 1; assay: Antiviral activity against HIV1 infected in human H9 cells after 4 days by p24 antigen ELISA; format: functional, organism-based; conditions: Human immunodeficiency virus 1, H9, 96 h
[11] = tested on: Human immunodeficiency virus 1; assay: Anti-HIV-1 activity in human H9 cells; conditions: H9, 96 h
[12] = Cytotoxicity against vincristine-resistant human KB/VCR cells overexpressing P-glycoprotein; format: functional, cell-based
[13] = Cytotoxicity against human KB-7d cells expressing multidrug-resistant protein; format: functional, cell-based; conditions: KB7D
[14] = Inhibition of tubulin polymerization
[15] = tested on: KB; assay: Cytotoxicity against human KB cells; format: functional, cell-based
[16] = tested on: KB; assay: Cytotoxicity against CPT-resistant human KB cells […] reduced level of topoisomerase; format: functional, cell-based
[17] = Therapeutic index, ratio of IC50 for human H9 cells to EC50 for HIV1; format: cell-based; conditions: read-out: TI
[18] = Therapeutic index, ratio of IC50 for human H9 cells to EC50 for multidrug-resistant HIV1 RTMDR1; format: cell-based; conditions: read-out: TI
[19] = tested on: H9; assay: Cytotoxicity against human H9 cells after 4 days by coulter counter; format: cell-based; conditions: Homo sapiens, H9, 96 h
[20] = Therapeutic index, ratio of IC50 for human H9 cells to EC50 for HIV 3B; format: cell-based; conditions: read-out: TI
[21] = tested on: Human immunodeficiency virus 1; assay: Antiviral activity against HIV1 3B infected in H9 cells assessed as inhibition of viral replication by p24 antigen ELISA; format: functional, organism-based; conditions: Human immunodeficiency virus 1, 3B, H9; read-out: EC50
[22] = tested on: Human immunodeficiency virus 1; assay: Antiviral activity against multidrug-resistant HIV1 RTMDR1 infected in H9 cells assessed as inhibition of viral replication by p24 antigen ELISA; format: functional, organism-based; conditions: Human immunodeficiency virus 1, RTMDR1, H9
[23] = tested on: OVCAR-3; assay: Antitumor activity against human OVCAR-3 cells xenografted in mouse assessed as increase in mouse life span; format: functional, cell-based
[24] = tested on: HCT-8; assay: Cytotoxicity against human HCT8 cells after 3 days by sulforhodamine B assay; format: functional, cell-based; conditions: HCT-8, 72 h
[25] = Cytotoxicity against human KBVIN cells after 3 days by sulforhodamine B assay; format: functional, cell-based; conditions: 72 h
[26] = tested on: PC-3; assay: Cytotoxicity against human PC3 cells after 3 days by sulforhodamine B assay; format: functional, cell-based; conditions: PC-3, 72 h
[27] = tested on: 1A9; assay: Cytotoxicity against human 1A9 cells after 3 days by sulforhodamine B assay; format: functional, cell-based; conditions: 1A9, 72 h
[28] = tested on: A549; assay: Cytotoxicity against human A549 cells after 3 days by sulforhodamine B assay; format: functional, cell-based; conditions: A549, 72 h
[29] = tested on: A-431; assay: Cytotoxicity against human A431 cells after 3 days by sulforhodamine B assay; format: functional, cell-based; conditions: A-431, 72 h
[30] = tested on: HUVEC; assay: Cytotoxicity against HUVEC after 3 days by sulforhodamine B assay; format: cell-based; conditions: Homo sapiens, 72 h
[31] = tested on: KB; assay: Cytotoxicity against human KB cells after 3 days by sulforhodamine B assay; format: functional, cell-based; conditions: 72 h
[32] = tested on: KB; assay: Selectivity ratio of EC50 for human KB cells to EC50 for vincristine-resistant human KB cells; format: functional

`CCOC(=O)/C=C/C(C(=O)/C=C/c1ccc(OC)c(OC)c1)=C(O)\C=C\c1ccc(OC)c(OC)c1` gave an IC50 [1] of 1 µM and an IC50 [2] of 0.2 µM.
Compound `Cc1cnc2[nH]c(-c3cccc(Cl)c3)cc(=O)c2c1` has an IC50 [3] of 0.72 µM.
`C=C1C(=O)O[C@@H]2C[C@@H](C)[C@H]3C=CC(=O)[C@@]3(C)[C@@H](OC(=O)CCCC(=O)O[C@H]3[C@H]4C(=C)C(=O)O[C@@H]4C[C@H](C)[C@H]4C=CC(=O)[C@]43C)[C@@H]12` showed a T/C [4] of 195%.
`C=C(C)C(=O)O[C@H]1C/C(C)=C\[C@@]2(OCC)C=C(C)[C@H](O2)[C@H]2OC(=O)C(=C)[C@@H]21` [PHANTOMOLIN] showed a T/C [5] of 378%.
Compound `C=C1C(=O)O[C@@H]2C[C@@H](C)[C@@H]3[C@@H]4CC(=O)[C@@]3(C[C@H]12)[C@@]1(C4)C(=O)O[C@@H]2C[C@@H](C)[C@@H]3C=CC(=O)[C@@]3(C)[C@@H](O)[C@@H]21` [MICROLENIN] has a T/C [5] of 173%.
With `CCCc1cccc2c1ccc1c3occ(C)c3c(=O)oc21` the EC50 [6] was > 10 µg/mL, the EC50 [7] was 1.2 µg/mL (≈ 4.1 µM) and the EC50 [8] was 0.3 µg/mL (≈ 1.03 µM). It also gave an EC50 [9] of 0.1 µg/mL (≈ 0.342 µM).
In the case of `C=C(C)[C@@H]1CC[C@]2(C(=O)O)CC[C@]3(C)[C@H](CC[C@@H]4[C@@]5(C)CC[C@H](OC(=O)/C=C/C)C(C)(C)[C@@H]5CC[C@]43C)[C@@H]12`, the IC50 [10] is reported as 48 µM and the EC50 [11] is reported as 19 µM.
Compound `COc1ccc2c(c1)c(=O)ccc1cc(OC)c(OC)c(OC)c12` has an EC50 [12] of 0.016 µg/mL (≈ 0.049 µM), an EC50 [13] of 0.024 µg/mL (≈ 0.0735 µM) and an IC50 [14] of 1 µM. For the same compound, the EC50 [15] was 0.029 µg/mL (≈ 0.0889 µM) and the EC50 [16] was 0.042 µg/mL (≈ 0.129 µM).
Work on `Cc1cnc2[nH]c(-c3cccc(F)c3)cc(=O)c2c1` yielded an IC50 [3] of 0.63 µM.
For `C=C(C)[C@@H]1CC[C@]2(C(=O)O)CC[C@]3(C)[C@H](CC[C@@H]4[C@@]5(C)CC[C@H](OC(=O)CC(C)(C)C(=O)O)C(C)(C)[C@@H]5CC[C@]43C)[C@@H]12` [BEVIRIMAT], the selectivity ratio [17] was 20000 and the EC50 [11] was 0.00035 µM.
In the case of `Cc1cnc2nc(-c3cccc4ccccc34)cc(O)c2c1`, the IC50 [3] is reported as 0.55 µM.
For `CC(C)c1cc(=O)c2ccc3c(c2o1)[C@@H](OC(=O)C12CCC(C)(C(=O)O1)C2(C)C)[C@@H](OC(=O)C12CCC(C)(C(=O)O1)C2(C)C)C(C)(C)O3` (some centres undefined), the selectivity ratio [18] was > 111, the IC50 [19] was 15 µM and the selectivity ratio [20] was 483. For the same compound, the EC50 [21] was 0.07 µM and the EC50 [22] was 0.14 µM.
For `CC1(C)Oc2ccc3c(=O)cc(-c4ccccc4)oc3c2[C@@H](OC(=O)C23CCC(C)(C(=O)O2)C3(C)C)[C@H]1OC(=O)C12CCC(C)(C(=O)O1)C2(C)C` (some centres undefined), the selectivity ratio [18] was 71, the IC50 [19] was 12.2 µM and the selectivity ratio [20] was 277. It also gave an EC50 [21] of 0.13 µM and an EC50 [22] of 0.17 µM.
`O=c1cc(-c2ccccc2F)[nH]c2cc3c(cc12)OCO3` gave an IC50 [14] of 0.85 µM and an Activity [23] of 130%.
In the case of `Cc1cc(=O)c2ccc3c(c2o1)[C@@H](OC(=O)C12CCC(C)(C(=O)O1)C2(C)C)[C@@H](OC(=O)C12CCC(C)(C(=O)O1)C2(C)C)C(C)(C)O3` (some centres undefined), the selectivity ratio [18] is reported as 63, the IC50 [19] is reported as 11.8 µM and the selectivity ratio [20] is reported as 8600. The EC50 [22] was 0.19 µM.
Compound `CCCC1=C(OC)C(CCC)(CCC)C(=O)/C(=C(O)\C=C\c2ccc(Br)cc2)C1=O` has an EC50 [24] of 0.9 µg/mL (≈ 1.89 µM), an EC50 [25] of 0.9 µg/mL (≈ 1.89 µM) and an EC50 [26] of 0.9 µg/mL (≈ 1.89 µM). It also gave an EC50 [27] of 0.9 µg/mL (≈ 1.89 µM), an EC50 [28] of 0.9 µg/mL (≈ 1.89 µM) and an EC50 [29] of 0.9 µg/mL (≈ 1.89 µM). The EC50 [30] was 0.9 µg/mL (≈ 1.89 µM) and the EC50 [31] was 0.9 µg/mL (≈ 1.89 µM).
`C=C(C)[C@@H]1CC[C@]2(C(=O)O)CC[C@]3(C)[C@H](CC[C@@H]4[C@@]5(C)CC[C@H](OC(=O)CC(C)(C)CC(=O)O)C(C)(C)[C@@H]5CC[C@]43C)[C@@H]12` gave a selectivity ratio [17] of 2000, an IC50 [10] of 4.5 µM and an EC50 [11] of 0.003 µM.
Compound `COc1cccc2c1ccc1c3occ(C)c3c(=O)oc21` has an EC50 [6] of 6.4 µg/mL (≈ 22.8 µM), an EC50 [7] of 2.3 µg/mL (≈ 8.21 µM) and an EC50 [8] of 0.1 µg/mL (≈ 0.357 µM). For the same compound, the EC50 [9] was 0.2 µg/mL (≈ 0.714 µM).
For `CCC1=C(O)c2c(oc(-c3ccc(CC)cc3)cc2=O)C(CC)(CC)C1=O` [6,8,8-TRIETHYL-4-ETHYL DESMOSDUMOTIN B], the “Ratio EC50” value [32] was 320 and the EC50 [25] was 0.025 µg/mL (≈ 0.0682 µM).
